Data from publication PMC9490236, “Accurate de novo design of membrane-traversing macrocycles” (Cell, 2022).
Where two headings read alike, the source gives them in different places. Where a SMILES comes first, the peptide text is derived from it. [ ]: non-standard residue; d: D form. dNMeF = CN[C@H](Cc1ccccc1)C(=O)O; NMeL = CN[C@@H](CC(C)C)C(=O)O; dNMeL = CN[C@H](CC(C)C)C(=O)O; NMeV = CN[C@H](C(=O)O)C(C)C; NMeA = CN[C@@H](C)C(=O)O; Aib = CC(C)(N)C(=O)O

How the values were obtained:
[1] = Caco-2 permeability assay (apical to basolateral); type: in vitro ADME, human; set-up: Caco_R1 / Caco_R3: unit not given here
Experimental: (§1) Human colon adenocarcinoma-derived Caco-2 cell line was used as a model system to investigate the intestinal epithelial permeability of our designs. Caco-2 cells were propagated in T125 flasks (Corning, Merck) using Dulbecco’s modified Eagle medium supplemented with 10% (v/v) fetal bovine serum, 1% (v/v) nonessential amino acids, and 1% (v/v) penicillin-streptomycin (Gibco, Thermo Fisher Scientific) at 37°C in an atmosphere of 5% CO2. Cells were subcultured when they reached 80% confluence.
(§2) The permeability of designed peptides was evaluated using an accelerated 6-day Caco-2 permeability assay as described previously ([Sevin et al., 2013]). In brief, cells were seeded into the 12-well Transwell plates with 0.4 μm polyester membrane inserts (Corning, Merck) to give 4.0 × 10^5 cells/well. The complete assay medium contained Dulbecco’s modified Eagle medium supplemented with 10% (v/v) fetal bovine serum, 1% (v/v) nonessential amino acids, and 0.4 μg/mL puromycin. The medium in plates was renewed every second day. The inserts received 0.75 mL of assay medium in the upper compartment (apical chamber) and 1.5 mL in the bottom compartment (basolateral chamber) individually. After 6-day incubation or until the cells formed monolayers, the medium in the apical and basolateral chamber was replaced with peptide solutions at 50 μM or Hanks' Balanced Salt Solution (HBSS), separately. The plates were incubated for 90 min at 37°C on an orbital shaker (60 rpm). The peptide concentration of solutions in the apical and basolateral compartments was subsequently quantified using LC-MS (Qstar Elite, AB Sciex Australia) to evaluate the transmembrane flux of peptides in the apical-to-basolateral direction. Membrane integrity of the Caco-2 cell monolayer was validated using trans-epithelial electrical resistance (TEER) measurements before and after the assays. Atenolol and quinidine were included as negative and positive controls in all assays.

[2] = system: Caco-2 cells; experiment: Caco-2 permeability assay (apical to basolateral); type: in vitro ADME, human; set-up: Caco_R1 / Caco_R3: unit not given here
Experimental: as §1, §2

[3] = in vitro; conditions: PAMPA, PAMPA_Papp_Avg
[4] = PAMPA
[5] = Caco-2, average of 3 replicates, read-out: Caco_Papp_Average

Row | SMILES | Papp A→B ([1]; Caco-2, Caco_Papp_Average) [×10⁻⁶ cm/s] | Caco_R1 ([2]; Caco-2) | Caco_R3 ([2]; Caco-2) | Papp [3] [×10⁻⁶ cm/s] | PAMPA_R1 [4] | PAMPA_R3 [4] | Papp at 90 min, 50 µM ([1]; human, Caco-2) [×10⁻⁶ cm/s] | Papp A→B [1, 5] [×10⁻⁶ cm/s] | Caco_R1 ([2]; Caco-2 Papp, replicate 1) | Caco_R3 ([2]; Caco-2 Papp, replicate 3) | PAMPA_Papp_Avg [4]
1 | CC(C)C[C@@H]1C(=O)N[C@H](CC(C)C)C(=O)N2CCC[C@@H]2C(=O)N2CCC[C@@H]2C(=O)N(C)[C@@H](C)C(=O)N[C@H](Cc2ccccc2)C(=O)N[C@@H](C)C(=O)N(C)[C@@H](CC(C)C)C(=O)N1C [Design D8.10, DPRO DPRO *ALA DPHE ALA *LEU *DLEU DLEU] (cyclo(A[NMeL][dNMeL][dL][dP][dP][NMeA][dF])) | 3.91 | 3.8 | 3.36 | 1.23 | 8.77E-07 | 1.78E-06 |  |  |  |  | 
2 | CC[C@H](C)[C@@H]1NC(=O)[C@@H](CC(C)C)N(C)C(=O)[C@H](CC(C)C)N(C)C(=O)[C@@H](Cc2ccccc2)NC(=O)[C@@H](CC(C)C)N(C)C(=O)[C@H]2CCCN2C(=O)[C@H]2CCCN2C(=O)[C@@H]2CCCN2C(=O)[C@@H](C(C)C)NC(=O)[C@@H]2CCCN2C(=O)[C@H](C)NC1=O [Design D11.11, PRO DPRO DPRO *DLEU DPHE *LEU *DLEU ILE ALA PRO DVAL] (cyclo(AP[dV]P[dP][dP][dNMeL][dF][NMeL][dNMeL]I)) | 4.92 | 2.88 | 5.78 | 2.26 | 1.97E-06 | 2.38E-06 |  |  |  |  | 
3 | CC[C@@H](C)[C@H]1NC(=O)[C@@H](CC(C)C)N(C)C(=O)[C@@H]2CCCN2C(=O)[C@@H]([C@H](C)CC)NC(=O)[C@@H](CC(C)C)NC(=O)[C@@H](CC(C)C)N(C)C(=O)[C@@H]2CCCN2C(=O)[C@@H](C(C)C)NC1=O [Design D8.8, PRO *DLEU DLEU DILE PRO *DLEU DILE DVAL] (cyclo(P[dNMeL][dI][dV]P[dNMeL][dL][dI])) | 23 | 20.91 | 24.11 | 5.9 | 9.54E-06 | 3.47E-06 |  |  |  |  | 
4 | CC[C@H](C)[C@@H]1NC(=O)[C@@H](CC(C)C)N(C)C(=O)[C@@H]2CCCN2C(=O)[C@H](C(C)C)NC(=O)C(C)(C)NC(=O)[C@H](CC(C)C)NC(=O)C(C)(C)NC(=O)[C@@H]2CCCN2C(=O)[C@H]2CCCN2C1=O [Design D9.1, DPRO PRO AIB LEU AIB VAL PRO *DLEU ILE] (cyclo([Aib]L[Aib]VP[dNMeL]I[dP]P)) | 0.897 | 0.42 | 2.09 | 1.59 | 1.43E-06 | 1.63E-06 |  |  |  |  | 
5 | CC[C@@H](C)[C@H]1NC(=O)[C@@H](CC(C)C)NC(=O)[C@H](C(C)C)NC(=O)[C@@H](CC(C)C)N(C)C(=O)[C@@H]2CCCN2C(=O)[C@H](C)NC(=O)[C@H](CC(C)C)N(C)C(=O)[C@H]2CCCN2C(=O)[C@H](C)N(C)C(=O)[C@@H](CC(C)C)N(C)C(=O)[C@@H]2CCCN2C1=O [Design D11.5, ALA PRO *DLEU VAL DLEU DILE PRO *DLEU *ALA DPRO *LEU] (cyclo(AP[dNMeL]V[dL][dI]P[dNMeL][NMeA][dP][NMeL])) | 3.84 | 2.93 | 3.89 | 2.81 | 2.56E-06 | 3.12E-06 |  |  |  |  | 
6 | CC[C@@H](C)[C@H]1NC(=O)[C@H]2CCCN2C(=O)[C@@H]2CCCN2C(=O)[C@@H]([C@H](C)CC)NC(=O)[C@@H](Cc2ccccc2)NC(=O)[C@@H](Cc2ccccc2)N(C)C(=O)[C@@H]2CCCN2C(=O)[C@@H](C(C)C)NC1=O [Design D8.33, DPHE DILE PRO DPRO DILE DVAL PRO *DPHE] (cyclo(P[dNMeF][dF][dI]P[dP][dI][dV])) | 19.1 | 18.4 | 16.82 | 6.72 | 5.91E-06 | 1.01E-05 | > 10 |  |  |  | 
7 | CC[C@H](C)[C@@H]1NC(=O)[C@@H](CC(C)C)NC(=O)[C@H](CC(C)C)N(C)C(=O)[C@H](Cc2ccccc2)NC(=O)CN(C)C(=O)[C@@H]2CCCN2C(=O)[C@H](C(C)C)NC(=O)[C@H](Cc2ccccc2)N(C)C(=O)[C@H]2CCCN2C(=O)[C@H](CC(C)C)NC1=O (single isomer, unassigned) [Design D10.1.p2, DLEU ILE LEU DPRO *PHE VAL PRO *GLY PHE *LEU] |  |  |  |  |  |  |  | 3.6 | 2.58 | 4.01 | 
8 | CC(C)C[C@@H]1C(=O)N(C)[C@@H](CC(C)C)C(=O)N2CCC[C@@H]2C(=O)N[C@H](CC(C)C)C(=O)N[C@H](C)C(=O)N2CCC[C@@H]2C(=O)N2CCC[C@H]2C(=O)N[C@@H](C)C(=O)N[C@H](Cc2ccccc2)C(=O)N[C@H](CC(C)C)C(=O)N[C@@H](C(C)C)C(=O)N1C (single isomer, unassigned) [Design D11.9.p2, VAL *DLEU *LEU DPRO DLEU DALA DPRO PRO ALA DPHE DLEU] | 4.03 | 2.62 | 4.02 |  | BQL | BQL |  |  |  |  | BQL
9 | CC(C)C[C@@H]1NC(=O)[C@@H]2CCCN2C(=O)[C@@H](Cc2ccccc2)NC(=O)[C@H](C)N(C)C(=O)[C@H](CC(C)C)NC(=O)[C@H](CC(C)C)N(C)C(=O)[C@@H](C)NC(=O)[C@@H](CC(C)C)NC(=O)[C@@H]2CCCN2C(=O)[C@@H](Cc2ccccc2)NC1=O (single isomer, unassigned) [Design D10.2.p1, LEU DPHE PRO DLEU DALA *LEU LEU *ALA DPHE PRO] | 9.76 | 8.83 | 11.73 |  | 4.51E-06 | 3.88E-06 |  |  |  |  | 3.92E-06
10 | CC[C@@H](C)[C@H]1NC(=O)[C@@H](CC(C)C)NC(=O)[C@@H](CC(C)C)N(C)C(=O)[C@@H]2CCCN2C(=O)[C@@H](C(C)C)NC(=O)[C@@H](CC(C)C)NC(=O)[C@@H](CC(C)C)N(C)C(=O)[C@@H]2CCCN2C1=O [Design D8.3.p2, DLEU DVAL PRO *DLEU DLEU DILE PRO *DLEU] (cyclo(P[dNMeL][dL][dI]P[dNMeL][dL][dV])) | 2.73 | 4.06 | 1.54 |  | BQL | BQL |  |  |  |  | BQL
11 | CC[C@H](C)[C@@H]1NC(=O)[C@@H](C(C)C)NC(=O)[C@@H]2CCCN2C(=O)[C@@H](CC(C)C)N(C)C(=O)[C@@H](C(C)C)NC(=O)[C@H](CC(C)C)N(C)C(=O)[C@H]2CCCN2C(=O)[C@@H](C)NC(=O)[C@H](Cc2ccccc2)N(C)C(=O)[C@H]2CCCN2C1=O (single isomer, unassigned) [Design D10.3.p2, ILE DPRO *PHE DALA DPRO *LEU DVAL *DLEU PRO DVAL] |  |  |  |  |  |  |  | 4.43 | 4.05 | 2.63 | 
12 | CC[C@H](C)[C@@H]1NC(=O)[C@H](Cc2ccccc2)N(C)C(=O)[C@H](CC(C)C)N(C)C(=O)[C@@H](C(C)C)NC(=O)[C@@H](C)NC(=O)[C@@H]2CCCN2C(=O)[C@@H](CC(C)C)NC(=O)[C@@H]2CCCN2C(=O)[C@H](C)NC1=O (single isomer, unassigned) [Design D9.6.p1] |  |  |  |  |  |  |  | 4.51 | 4.759 | 4.47 | 
13 | CC(C)C[C@H]1C(=O)N2CCC[C@@H]2C(=O)N(C)[C@@H](C(C)C)C(=O)N[C@@H](C(C)C)C(=O)N2CCC[C@H]2C(=O)N2CCC[C@@H]2C(=O)N[C@@H](C)C(=O)N[C@H](C(C)C)C(=O)N(C)[C@@H](CC(C)C)C(=O)N[C@@H](C)C(=O)N1C [Design D10.5, PRO DPRO ALA DVAL *LEU ALA *LEU DPRO *VAL VAL] (cyclo(A[NMeL][dP][NMeV]VP[dP]A[dV][NMeL])) |  |  |  |  |  |  |  | 0.497 | 1.31 | 0.08 | 
